1 substance from patent publication US11326164B2, “Trimethylglycylglycerin compositions and their use in developing anti-cancer drugs and RNA vaccines” (WJWU & LYNN Institute for Stem Cell Research, priority 2019, dated 2022) can be followed below.

The subject of this data set is Human lung epithelial cell line and lung cancer cell lines. Briefly: cell cultivation in TMGG (tolerance). The data set is classed as cell-based. The following applies: cultivated in 0.01˜3.0M TMGG with all necessary supplements, up to 48 hours. How it is done:
Human lung epithelial cell line and lung cancer cell lines were purchased from ATCC and cultivated according to manufacturer's protocols at 37° C. under 5% CO2. Cells were passaged at about 50%-70% confluence by exposing the cells to trypsin/EDTA for about 1 min and then rinsing two times in HBSS containing trypsin inhibitor. The detached cells were replated at 1:5 dilutions in fresh EpiLife medium with HKGS supplements. For miRNA transfection, pri-/pre-miR-302 prepared from Example 1 was dissolved in 0.01˜5.0M, preferably 0.1˜2.0M, of TMGG solution at a desired concentration up to 5 mg/ml and then directly applied to cell culture medium based on the miRNA amount needed. For example, to deliver […] pri-/pre-miR-302, we would need to add 40 μl of the TMGG-dissolved pri-/pre-miR-302 (at 5 mg/ml) into the cell culture medium and then mix well with the cells.

With trimethylglycylglycerins [TMGG], the “adverse effect on cultivated cells” value is “not showing any adverse effect”.
